Read-outs that look alike come from different tables or passages of the source.
Assays:
[1] = not given; remark: listed apart in the source
[2] = target: purified human Factor XIa (Homo sapiens (Human), UniProt P03951); assay: Factor XIa enzyme inhibition assay (chromogenic substrate S-2366); type: biochemical; details: substrate S-2366, pH 7.4
Description: The effectiveness of compounds of the present invention as inhibitors of the coagulation Factors XIa, VIIa, IXa, Xa, XIIa, plasma kallikrein or thrombin, can be determined using a relevant purified serine protease, respectively, and an appropriate synthetic substrate. The rate of hydrolysis of the chromogenic or fluorogenic substrate by the relevant serine protease was measured both in the absence and presence of compounds of the present invention. […] A decrease in the rate of absorbance or fluorescence change in the presence of inhibitor is indicative of enzyme inhibition. Such methods are known to one skilled in the art. The results of this assay are expressed as the inhibitory constant, Ki.
Values of Ki were determined by allowing the protease to react with the substrate in the presence of the inhibitor. Reactions were allowed to go for periods of 20-180 minutes (depending on the protease) and the velocities (rate of absorbance or fluorescence change versus time) were measured. The following relationships were used to calculate Ki values: (vo−vs)/vs=I/(Ki(1+S/Km)) for a competitive inhibitor with one binding site; or vs/vo=A+((B−A)/1+((IC50/(I)n))); and Ki=IC50/(1+S/Km) for a competitive inhibitor where: […]

[3] = from C=CCCCc1ccccc1-c1cn(COCC[Si](C)(C)C)c([C@H](CC=C)NC(=O)OC(C)(C)C)n1, rcm bond, 12-membered ring, Grubbs II (0.4 eq)/pTsOH, DCM, 0.97 mM, 40.0 °C, 1.0 h
[4] = from C=CCCOc1ccccc1-c1cn(COCC[Si](C)(C)C)c([C@H](CC=C)NC(=O)OC(C)(C)C)n1, rcm bond, 12-membered ring, Grubbs II (1 eq)/pTsOH, DCM, 1.02 mM, 40.0 °C, 1.0 h

Sequence of purified human Factor XIa (P03951 388-625): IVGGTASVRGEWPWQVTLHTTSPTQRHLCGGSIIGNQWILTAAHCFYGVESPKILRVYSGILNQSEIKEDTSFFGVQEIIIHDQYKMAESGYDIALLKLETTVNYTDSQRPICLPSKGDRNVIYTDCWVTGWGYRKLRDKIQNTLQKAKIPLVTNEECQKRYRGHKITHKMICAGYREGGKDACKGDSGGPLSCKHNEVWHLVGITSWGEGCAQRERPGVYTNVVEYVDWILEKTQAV
Sequence of purified human Factor XIa (P03951 19-387 partner): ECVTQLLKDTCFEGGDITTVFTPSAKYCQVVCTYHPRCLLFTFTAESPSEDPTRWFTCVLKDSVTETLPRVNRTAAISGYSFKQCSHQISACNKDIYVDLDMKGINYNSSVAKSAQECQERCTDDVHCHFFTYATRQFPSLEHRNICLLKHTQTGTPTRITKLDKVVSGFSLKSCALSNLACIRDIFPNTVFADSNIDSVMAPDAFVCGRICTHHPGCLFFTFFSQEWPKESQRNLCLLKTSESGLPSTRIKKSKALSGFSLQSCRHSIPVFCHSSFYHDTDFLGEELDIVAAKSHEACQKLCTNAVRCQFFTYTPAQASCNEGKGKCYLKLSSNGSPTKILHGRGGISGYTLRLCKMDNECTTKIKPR

CC(C)(C)OC(=O)N[C@H]1C/C=C/CCCc2ccccc2-c2cn(COCC[Si](C)(C)C)c1n2
ring closure, isolated yield [3]: 45.3%

COC(=O)Nc1ccc2c(c1)CCCN(C)C(=O)C[C@H](NC(=O)OC(C)(C)C)c1nc-2cn1COCC[Si](C)(C)C
ring closure, isolated yield (from CNCCCc1cc(NC(=O)OC)ccc1-c1cn(COCC[Si](C)(C)C)c([C@H](CC(=O)O)NC(=O)OC(C)(C)C)n1, amide bond, 12-membered ring, BOP/DIEA/DMAP, DCM/DMF, 8.6 mM, 25.0 °C, 2.0 h): 39.4%

COC(=O)Nc1ccc2c(c1)NC(=O)CC/C=C/C[C@H](NC(=O)OC(C)(C)C)C1=NN=C2O1
ring closure, isolated yield (from -[5-((S)-1-tert-Butoxycarbonylamino-but-3-enyl)-1,3,4-oxadiazol-2-yl]-3-pent-4-enoylamino-phenyl}-carbamic acid methyl ester, rcm bond, 13-membered ring, Grubbs II (0.36 eq), DCE, 0.61 mM, 75.0 °C): 19.1%

COC(=O)Nc1ccc2c(c1)NC(=O)CC/C=C/CC(NC(=O)OC(C)(C)C)c1cc-2nnc1Cl (centres unmarked)
ring closure, isolated yield (from C=CCCC(=O)Nc1cc(NC(=O)OC)ccc1-c1cc(C(CC=C)NC(=O)OC(C)(C)C)c(Cl)nn1, rcm bond, 13-membered ring, Grubbs II, DCM, 6.6 mM, 1.0 h): 56%

COC(=O)Nc1ccc2c(c1)NC(=O)CCN(C(=O)OC(C)(C)C)C[C@H](NC(=O)OCc1ccccc1)c1nc-2cn1COCC[Si](C)(C)C
ring closure, isolated yield (from COC(=O)Nc1ccc(-c2cn(COCC[Si](C)(C)C)c([C@H](CN(CCC(=O)O)C(=O)OC(C)(C)C)NC(=O)OCc3ccccc3)n2)c(N)c1, amide bond, 12-membered ring, BOP/DIEA, DCM/DMF, 0.93 mM, 25.0 °C, 5.0 h): 87%

(S)-Methyl N-4-(2-(1-(tert-butoxycarbonylamino)but-3-enyl)-1-((2-(trimethylsilyl)ethoxy)methyl)-1H-imidazol-4-yl)-3-(4-methylpent-4-enamido)phenylmethanimidoperoxoate
ring closure, isolated yield (the molecule shown is the open-chain precursor, rcm bond, 13-membered ring, Grubbs II (0.2 eq), microwave, DCE, 105.0 mM, 120.0 °C): 34.6%

COC(=O)Nc1ccc2c(c1)N(C(=O)C(F)(F)F)[C@@H](C(=O)OC)CC=CC[C@H](NC(=O)OC(C)(C)C)c1nc-2cn1COCC[Si](C)(C)C
ring closure, isolated yield (from C=CC[C@H](NC(=O)OC(C)(C)C)c1nc(-c2ccc(NC(=O)OC)cc2N(C(=O)C(F)(F)F)[C@H](CC=C)C(=O)OC)cn1COCC[Si](C)(C)C, rcm bond, 12-membered ring, Grubbs II (15 mol%), DCE, 37.3 mM, 84.0 °C, 15.0 h): 37%

COC(=O)Nc1ccc2c(c1)NC(=O)C/C=C/CC(NC(=O)OC(C)(C)C)c1cc-2nc(C)n1 (centres unmarked)
ring closure, isolated yield (from C=CCC(=O)Nc1cc(NC(=O)OC)ccc1-c1cc(C(CC=C)NC(=O)OC(C)(C)C)nc(C)n1, rcm bond, 12-membered ring, Grubbs II (0.4 eq)/HCl, DCM, 0.5 mM, 40.0 °C, 4.0 h): 22%

CC(C)(C)OC(=O)N[C@H]1C/C=C\CCC(=O)Nc2ccccc2C2=NN=C1O2 (mixture of isomers)
ring closure, yield after HPLC ([1]; from C=CCCC(=O)Nc1ccccc1-c1nnc([C@H](CC=C)NC(=O)OC(C)(C)C)o1, rcm bond, 13-membered ring, Grubbs II, DCM, 4.8 mM, 75.0 °C, 1.5 h): 27%

COC(=O)Nc1ccc2c(c1)N[C@@H](C(=O)NCc1ccccn1)CCCC[C@H](NC(=O)/C=C/c1cc(Cl)ccc1-n1cnnn1)c1cc-2ccn1 [II-58]
Ki [2]: 21 nM

CC(C)(C)OC(=O)N[C@H]1C/C=C\CCOc2ccccc2-c2cn(COCC[Si](C)(C)C)c1n2
ring closure, isolated yield [4]: 9%

COC(=O)Nc1ccc2c(c1)N[C@@H](C(=O)OC)CC=CC[C@H](NC(=O)OC(C)(C)C)c1nc-2cn1COCC[Si](C)(C)C
ring closure, isolated yield (from C=CC[C@H](NC(=O)OC(C)(C)C)c1nc(-c2ccc(NC(=O)OC)cc2N[C@H](CC=C)C(=O)OC)cn1COCC[Si](C)(C)C, rcm bond, 12-membered ring, Grubbs II (0.4 eq), DCE, 40.0 mM, 120.0 °C, 0.33 h): 30%

COC(=O)Nc1ccc2c(c1)NC(=O)CC/C=C/CC(NC(=O)/C=C/c1cc(Cl)ccc1-n1cnnn1)c1cc-2nnc1Cl (centres unmarked) [Example 89, {(E)-17-Chloro-15-[(E)-3-(5-chloro-2-tetrazol-1-yl-phenyl)-acryloylamino]-9-oxo-8,18,19-triaza-tricyclo[14.3.1.0^2,7]icosa-1(20),2,4,6,12,16,18-heptaen-5-yl}-carbamic Acid Methyl Ester]
Ki [2]: 1060 nM

CC(C)(C)OC(=O)N[C@H]1C/C=C/CCOc2ccccc2-c2cn(COCC[Si](C)(C)C)c1n2
ring closure, isolated yield [4]: 20%

CC(C)(C)OC(=O)N[C@H]1C/C=C\CCCc2ccccc2-c2cn(COCC[Si](C)(C)C)c1n2
ring closure, isolated yield [3]: 17.6%

COC(=O)Nc1ccc2c(c1)NC(=O)CC/C=C/C[C@H](NC(=O)OC(C)(C)C)c1cc-2ccn1
ring closure, yield after HPLC ([1]; from C=CCCC(=O)Nc1cc(NC(=O)OC)ccc1-c1ccnc([C@H](CC=C)NC(=O)OC(C)(C)C)c1, rcm bond, 13-membered ring, Grubbs II/pTsOH, DCM, 0.99 mM, 40.0 °C, 1.5 h): 75%

COC(=O)c1ccc2c(c1)OCCNC(=O)CC(NC(=O)OC(C)(C)C)c1cc-2nnc1Cl (centres unmarked)
ring closure, yield after HPLC ([1]; from COC(=O)c1ccc(-c2cc(C(CC(=O)O)NC(=O)OC(C)(C)C)c(Cl)nn2)c(OCCN)c1, amide bond, 12-membered ring, BOP/DIEA/DMAP, DCM/DMF, 1.28 mM, 2.5 h): 15.3%

Source: patent publication US11136327B2, “Macrocycles as factor XIA inhibitors” (Bristol-Myers Squibb Company, priority 2010, dated 2021)
